According to US6284734A, “Inhibitors against prostate-specific antigen” (JCR Pharmaceuticals Co., Ltd., priority 1997, dated 2001):
No end group written: not given here.

Tests used:
PSA [1] = biological target: T1, PSA (Homo sapiens, UniProt P07288); assay: PSA activity assay with Pro-Phe-Arg-MCA substrate, residual activity in coexistence of peptides; assay type: biochemical; conditions: enzyme added PSA, 100% without any Peptide
T1 construct: Using PSA as purified from human urine or seminal plasma; from tissue; host or cells: human urine or seminal plasma
Experimental: Then, investigation was conducted into whether or not these peptides act to inhibit the PSA activity.
While using […] of 100 μM or 10 μM Pro-Phe-Arg-MCA (supplied by Peptide Research. Institute of Japan) as a substrate, 0.1 ml of 100 μM of each of Peptides 1 to 5 was mixed with the substrate and 0.7 ml of 0.1M Tris-hydrochloride buffer (pH 8.0) to allow the reaction to proceed at 37° C. for 5 min, followed by addition of 0.1 ml of 0.12 mg/ml PSA solution. The reaction solution was subjected to time-course measurement of fluorescence intensity (Ex380 nm, Em460nm) at 37° C. for 3 min, and the inhibitory activity value was determined from a slope of the straight line. […] In the above experiments, Pro-Phe-Arg-MCA, Peptides 1 to 5 PSA and kallikrein were used after being dissolved in 0.1M Tris-hydrochloride buffer (pH 8.0).
These findings are in good agreement with the fact that PSA a protease belonging to the kallikrein family .

PSA [2] = biological target: T1, PSA; assay: Degradation of r-IGFBP3 by PSA, SDS electrophoresis and Western blotting with densitometry; assay type: biochemical; conditions: relative to r-IGFBP3 alone (100.0); r-IGFBP3 + PSA 50.0; 4 nmol Peptide 4
Experimental: And PSA degrades r-IGFB3 into fragments, whereby its degradation process can be confirmed by means of SDS-electrophoresis and Western blotting.
A specimen was prepared by dissolving 0.57 μg of PSA and 2.0 μg of r-IGFBP3 (manufactured by Upstate Co. of USA) in 0.1M Tris-hydrochloride buffer (pH 8.0), followed by reaction at 37° C. for 16 hrs, while another specimen was prepared by dissolving 0.57 μg of PSA, 2.0 μg of r-TGFBP3 (manufactured by Upstate Co. of USA) and 4 nmol of Peptide 4 in 0.1M Tris-hydrochloride buffer (pH 8.0), followed by reaction at 37° C. for 16 hrs. Each of the specimens was subjected to a 4 to 20% gradient gel to conduct SDS electrophoresis under non-reduction in the conditions described by Laemmli et al. (Iqature, 227: 680-685, 1970). After electrophoresis, separated proteins were transferred to a nitrocellulose membrane to carry out Western blotting using anti-IGFBP3 antibody (produced by Biogenesis Co. of USA) as a primary antibody and anti-rabbit antibody (produced by Promega Co. of USA) labeled with horseradish peroxidase (HRP) as a secondary antibody. The HRP activity was detected by chemiluminescence (Renaissance Western Blot Chemiluminescence Reagent, NEN™ produced by Life Science Products Co. of USA), and the protein bands as detected were quantitatively determined by use of a densitometer.

[3] = column A, Substrate:Peptide molar ratio 1:1
[4] = column B, Substrate:Peptide molar ratio 1:10

T1 sequence (P07288 25-261): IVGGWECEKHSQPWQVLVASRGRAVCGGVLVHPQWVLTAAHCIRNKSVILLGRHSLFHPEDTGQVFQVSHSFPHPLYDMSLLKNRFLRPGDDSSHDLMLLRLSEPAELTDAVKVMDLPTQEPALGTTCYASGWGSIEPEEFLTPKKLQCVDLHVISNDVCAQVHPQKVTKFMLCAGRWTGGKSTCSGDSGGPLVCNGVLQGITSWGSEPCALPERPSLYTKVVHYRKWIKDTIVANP

Row | Sequence | Residual activity rate (%) after addition of Peptides (PSA [1]; [3]) | Residual activity rate (%) after addition of Peptides (PSA [1]; [4]) | Residual rate % of the 50 kDa band (PSA [2])
1 | VSSTHRVSDPKF [Peptide 2, Val(127)-Ser-Ser-Thr-His-Arg-Val-Ser-Asp-Pro-Lys-Phe(138)] | 87.5% | 104.8% | 
2 | VNASAVSRLRAYLLP [Peptide 1, val(88)-Asn-Ala-Ser-Ala-Val-Ser-Arg-Leu-Arg-Ala-Tyr-Leu-Leu-Pro(102)] | 107.4% | 100.7% | 

The next lines start with the values.

Row | Residual activity rate (%) after addition of Peptides (PSA [1]; [3]) | Residual activity rate (%) after addition of Peptides (PSA [1]; [4]) | Residual rate % of the 50 kDa band (PSA [2]) | Sequence
3 | 66.5% | 46.6% | 65.1% | GFYKKKQSR [Peptide 4, Gly(217)-Phe-Tyr-Lys-Lys-Lys-Gln-Ser-Arg(225)]
4 | 75.1% | 84.8% |  | PSKGRKRGFM [Peptide 5, Pro(226)-Ser-Lys-Gly-Arg-Lys-Arg-Gly-Phe-Met(235)]
5 | 83.5% | 73.3% |  | LNHLKFLNVL [Peptide 3, Leu(194)-Asn-His-Leu-Lys-Phe-Leu-Asn-val-Leu(203)]
